What is called GI50 is the concentration that inhibits growth by half.

One data set deals with human skin fibroblasts. The data set is described as follows: short-term studies on cultured human skin fibroblasts (attachment, survival, growth, apoptosis). It is filed as cell-based. On the procedure: Several short-term, preliminary studies of the effect of 6-furfurylamino-9-(2-tetrahydropyranyl)purine on cultured human skin fibroblasts cells have been carried out. The initial study involved the addition of 6-furfurylamino-9-(2-tetrahydropyranyl)purine (40 to 400 μM) to human skin fibroblasts cells in a culture. The percentage of attachment of the cells to the surface of the culture flask was not affected after 6 hours of treatment. In the remaining experiments reported in this example, the 6-furfurylamino-9-(2-tetrahydropyranyl)purine was added directly to the culture medium at the same time as the cells were seeded.
A wider range of concentrations (from 0.01 to 500 μM) was tested for determining the effects of 6-furfurylamino-9-(2-tetrahydropyranyl)purine on the survival of cultured human skin fibroblasts after 3 days of treatment.
The effect of 6-furfurylamino-9-(2-tetrahydropyranyl)purine (0 to 400 μM) treatment on short term growth of young human fibroblasts was also evaluated. Cell growth was similar in untreated samples and in samples treated with 40, 80, and 200 μM 6-furfurylamino-9-(2-tetrahydropyranyl)purine. […] Similar experiments were carried out to determine the extent of apoptosis and beta-galactosidase staining in 6-furfurylamino-9-(2-tetrahydropyranyl)purine-treated and untreated cells.
Based on these studies, 6-furfurylamino-9-(2-tetrahydropyranyl)purine appears to be well tolerated by young and senescent human skin fibroblasts and to have positive effects in terms of reversion of actin pattern and morphology of senescent cells to relatively younger characteristics.

The test system of data set [1] is Human forskin fibroblasts (cell line BJ). As to the kind of experiment: in vitro cytotoxic activity, MTT assay. It is filed as cell-based. To be noted: 72 hours; BJ fibroblasts at middle passage. On the procedure:
In vitro cytotoxic activity of several of the 6,9-disubstituted purine derivatives of this invention against human diploid fibroblasts was determined by standard MTT assay optimized for 96-well plates. The assay is based on spectrofotometric measurement of the product of metabolic conversion of MTT by mitochondria of living cells.
Human forskin fibroblasts (cell line BJ) at middle passage were maintained in 75 cm^2 plastic tissue culture flasks and cultured in cell culture medium (DMEM with 5 g/l glucose, 2 mM glutamine, 100 U/ml penicillin, 100 μg/ml streptomycin, 10% fetal calf serum, and sodium bicarbonate).
About 5,000 cells were seeded per well of the 96-well plate. After 24 hours the cell culture medium was replaced with the cell culture medium containing a test compound. The test compounds were evaluated at six 2-fold dilutions. The highest concentration used in the present study was usually 200 μM. In the case of compounds with limited solubility in the culture medium the highest concentration was adjusted. Every test compound was examined in five replicates. Cells with the test compounds were incubated for 72 hours at 37° C. in 5% CO2 atmosphere and 100% humidity. At the end of the incubation period, the culture medium was replaced with the cell culture medium containing MTT (0.5 mg/ml) and cells were incubated for another 3 hours. The formazan formed was solubilized by DMSO and absorbance at 570 nm was measured. Ability of the tested compounds to inhibit MTT reducing activity of the cells was calculated as IC=(Acompound exposed well−mean Ablank)/(mean Acontrol well−meanAblank)×100%. IC10, the drug concentration causing 10% decrease in MTT reducing activity, was calculated from the obtained dose response curves.
(In general: Tetrazolium assays rely on reduction of a dye to a coloured formazan, in cell work by metabolically active cells.)

Another data set relates to human subjects. As to the kind of experiment: Human Repeated Insult Patch Test. It is filed as in vivo. Conditions: test gel about 0.1 percent. How it is done:
Test gel (about 0.2 ml) containing about 0.1 percent 6-furfurylamino-9-(2-tetrahydropyranyl)purine was placed onto a 2 cm square occlusion patch was placed on each subjects back and remained for 24 hours. This procedure was repeated every Monday, Wednesday, and Friday until nine (9) applications had been made on the same area (induction phase). The area was examined before each new application. About 10-14 days after the ninth patch had been removed, a challenge patch (challenge phase) on a new area of the back and then examined 24 and 72 hours thereafter for reactivity. Skin responses were based on a six-point scale (0=no evidence of effect; +=barely perceptible; 1=mild; 2=moderate; 3=marked; and 4=severe).
Fifty-two (52) subjects completed the induction and challenge phases (total of 10 applications per subject).

For data set [2], the system named is human myeloid leukemia K-562. The data set is described as follows: in vitro cytotoxic activity, Calcein AM microtiter assay. The data set is classed as cell-based. Conditions: K562, 72 hours, highest concentration 166.7 μM. On the procedure: (§1) In vitro cytotoxic activity of several of the 6,9-disubstituted purine derivatives of this invention was determined using a microtiter assay with Calcein AM and a panel of cell lines of different histogenetic and species origin; kinetin was also examined as a control. Because only metabolically active cells cleave Calcein AM (tetraacetoxymethyl ester of calcein), the intracellular concentration of calcein corresponds to the number of vital cells in the culture.
(§2) The following cell lines were used: human osteosarcoma (HOS); breast carcinoma MCF-7; human myeloid leukemia K-562; and mouse fibroblasts NIH3T3. The cells were maintained in Nunc/Corning 80 cm^2 plastic tissue culture flasks and cultured in cell culture medium (DMEM with 5 g/l glucose, 2 mM glutamine, 100 U/ml penicillin, 100 μg/ml streptomycin, 10% fetal calf serum, and sodium bicarbonate).
(§3) The cell suspensions were prepared and diluted according to the particular cell type and the expected target cell density (2.500-30.000 cells per well based on cell growth characteristics) were added by pipette (80 μl) into 96/well microtiter plates. Inoculates were allowed a pre-incubation period of 24 hours at 37° C. and 5% CO2 for stabilization. Four-fold dilutions of the intended test concentration were added at time zero in 20 μl aliquots to the microtiter plate wells. The test compounds were generally evaluated at six 4-fold dilutions. The highest well concentration used in the present study was 166.7 μM. All samples were examined in triplicates. Incubations of cells with the tested compounds was for 72 hours at 37° C., in 5% CO2 atmosphere and 100% humidity. At the end of the incubation period, Calcein AM was added to a final concentration of 1 μg/ml incubated for 1 hour. Fluorescence intensity (FI) was measured with a Labsystem FIA Reader Fluoroscan Ascent (UK). The cell survival (GI50) was calculated using the following equation: GI50=([…])/(mean FIcontrol well−mean FIblank)×100%. The GI50 value, the drug concentration lethal to 50% of the cells, was calculated from the obtained dose response curves.

In a further data set the test system is human osteosarcoma (HOS). The description is as above. The data set is classed as cell-based. To be noted: 72 hours, highest concentration 166.7 μM. On the procedure:
as §1, §2, §3

The subject of another data set is breast carcinoma MCF-7. The description is as above. It is filed as cell-based. To be noted: Homo sapiens, MCF7; 72 hours; highest concentration 166.7 μM. How it is done: as §1, §2, §3
Another data set relates to mouse fibroblasts NIH3T3. The description is as above. The data set is classed as cell-based. Conditions: NIH3T3, 72 hours, highest concentration 166.7 μM, read-out: GI50 NIH-3T3. On the procedure:
as §1, §2, §3

Consider `c1coc(CNc2ncnc3c2ncn3C2CCCCO2)c1` (centres unmarked) [6-furfurylamino-9-(2-tetrahydropyranyl)purine], for which the “toxicity or other negative effects on survival of cultured human skin fibroblasts” value with human skin fibroblasts (0.01 to 500 μM, 3 days of treatment) is on record as “No toxicity or other negative effects were apparent”. Further, the “short term growth of young human fibroblasts vs untreated” value in the data set on human skin fibroblasts (40, 80, and 200 μM) is listed as “similar”. Moreover, in the data set with human skin fibroblasts (40 to 400 μM, after 6 hours of treatment), the “percentage of attachment of the cells to the surface of the culture flask” value is reported as “not affected”. The “short term growth of young human fibroblasts” value in the data set on human skin fibroblasts (about 400 μM) is on record as “slight decrease in growth of cells”. Moreover, the “cell growth and survival” value with human skin fibroblasts (between 1 and 200 μM, 3 days of treatment) is “slight stimulation of cell growth and survival”. Besides, the “apoptosis and beta-galactosidase staining (premature senescence)” value in the data set on human skin fibroblasts (various doses (0 to 400 μM)) is listed as “no suggestion of induction of apoptosis or premature senescence”. Also, the “induction of additional growth or cell division” value in the data set with human skin fibroblasts (young and senescent human skin fibroblasts) was “No significant induction of additional growth or cell division”. In addition, in data set [1], the “IC10 (concentration causing 10% decrease in MTT reducing activity)” value is over 200 µM. Moreover, the “skin responses, six-point scale (0=no evidence of effect; +=barely perceptible; 1=mild; 2=moderate; 3=marked; 4=severe)” value with human subjects (challenge phase, at 24 hours, 52 subjects) was “only one subject had a barely perceptible rating (+)”. Further, the “induced allergic contact dermatitis or other irritation” value in the data set with human subjects (induction and challenge phases) is “No evidence of induced allergic contact dermatitis or other irritation”. Besides, the GI50 (in data set [2]; with human osteosarcoma (HOS); in the data set with breast carcinoma MCF-7; in the data set on mouse fibroblasts NIH3T3) was over 167 µM each time.
